Measurements as given in patent publication US5674854A, “Inclusion complex of beta-cyclodextrin and diclofenac, its preparation and use” (Farmarc Nederland BV, priority 1993, dated 1997).

Columns and labels:
[1] = physchem; type: physicochemical; conditions: identical conditions (deionized water, room temperature, 24 hours); read-out: equilibrium solubility of diclofenac sodium in the absence of beta cyclodextrin
Protocol: The vial is sealed and placed in a laboratory shaker. The mixture is allowed to shake for 5 minutes and then equilibrated for 24 hours. The supernatant is filtered through a 0,22 micron filter and analyzed for diclofenac concentration by HPLC.

[2] = phase solubility analysis; cited from earlier work

Compound O=C(O)Cc1ccccc1Nc1c(Cl)cccc1Cl [diclofenac sodium] has a solubility thermodynamic at 24 h [1] of 5000 µg/mL.
For O=C(O)Cc1ccccc1Nc1c(Cl)cccc1Cl [diclofenac, 2-[(2,6-dichlorophenyl)amino]benzeneacetic acid], the “effect of beta-cyclodextrin and hydroxyalkyl ether derivatives on aqueous solubility of diclofenac” value [2] is given as “increase the aqueous solubility”.
